These results are taken from ChEMBL document CHEMBL3774366, “Synthesis, and docking studies of phenylpyrimidine-carboxamide derivatives bearing 1H-pyrrolo[2,3-b]pyridine moiety as c-Met inhibitors” (Bioorg Med Chem, 2016).

One experiment is described as follows: cells. Conditions: Homo sapiens, PC-3, 72 h; call rule not given here.
The next experiment deals with A549. The experiment can be described thus: Cytotoxicity against human A549 cells after 72 hrs by MTT assay. For orientation: Formazan colour is commonly taken as a measure of viable cells.
Experiment [1] relates to MCF7. Kind of experiment: cells. Conditions: Homo sapiens, MCF7, 72 h.
Description: (§1) Cytotoxicity against human MCF7 cells after 72 hrs by MTT assay
In a further experiment the test system is HeLa. The experiment can be described thus: Cytotoxicity against human HeLa cells after 72 hrs by MTT assay. Type of experiment: functional, cell-based.
The subject of the next experiment is HepG2. Kind of experiment: Cytotoxicity against human HepG2 cells after 72 hrs by MTT assay. Conditions: HepG2, 72 h. Type of experiment: functional, cell-based.
The target in experiment [2] is Hepatocyte growth factor receptor (Homo sapiens, UniProt P08581). Kind of experiment: Inhibition of c-Met (unknown origin) using FAM-labeled peptide substrate after 10 mins by mobility shift assay.
Experiment [3] has as its system MCF7.
Description: as §1

As usually defined, the IC50 is the concentration that inhibits the measured activity by half.

Chain of Hepatocyte growth factor receptor (P08581 whole entry): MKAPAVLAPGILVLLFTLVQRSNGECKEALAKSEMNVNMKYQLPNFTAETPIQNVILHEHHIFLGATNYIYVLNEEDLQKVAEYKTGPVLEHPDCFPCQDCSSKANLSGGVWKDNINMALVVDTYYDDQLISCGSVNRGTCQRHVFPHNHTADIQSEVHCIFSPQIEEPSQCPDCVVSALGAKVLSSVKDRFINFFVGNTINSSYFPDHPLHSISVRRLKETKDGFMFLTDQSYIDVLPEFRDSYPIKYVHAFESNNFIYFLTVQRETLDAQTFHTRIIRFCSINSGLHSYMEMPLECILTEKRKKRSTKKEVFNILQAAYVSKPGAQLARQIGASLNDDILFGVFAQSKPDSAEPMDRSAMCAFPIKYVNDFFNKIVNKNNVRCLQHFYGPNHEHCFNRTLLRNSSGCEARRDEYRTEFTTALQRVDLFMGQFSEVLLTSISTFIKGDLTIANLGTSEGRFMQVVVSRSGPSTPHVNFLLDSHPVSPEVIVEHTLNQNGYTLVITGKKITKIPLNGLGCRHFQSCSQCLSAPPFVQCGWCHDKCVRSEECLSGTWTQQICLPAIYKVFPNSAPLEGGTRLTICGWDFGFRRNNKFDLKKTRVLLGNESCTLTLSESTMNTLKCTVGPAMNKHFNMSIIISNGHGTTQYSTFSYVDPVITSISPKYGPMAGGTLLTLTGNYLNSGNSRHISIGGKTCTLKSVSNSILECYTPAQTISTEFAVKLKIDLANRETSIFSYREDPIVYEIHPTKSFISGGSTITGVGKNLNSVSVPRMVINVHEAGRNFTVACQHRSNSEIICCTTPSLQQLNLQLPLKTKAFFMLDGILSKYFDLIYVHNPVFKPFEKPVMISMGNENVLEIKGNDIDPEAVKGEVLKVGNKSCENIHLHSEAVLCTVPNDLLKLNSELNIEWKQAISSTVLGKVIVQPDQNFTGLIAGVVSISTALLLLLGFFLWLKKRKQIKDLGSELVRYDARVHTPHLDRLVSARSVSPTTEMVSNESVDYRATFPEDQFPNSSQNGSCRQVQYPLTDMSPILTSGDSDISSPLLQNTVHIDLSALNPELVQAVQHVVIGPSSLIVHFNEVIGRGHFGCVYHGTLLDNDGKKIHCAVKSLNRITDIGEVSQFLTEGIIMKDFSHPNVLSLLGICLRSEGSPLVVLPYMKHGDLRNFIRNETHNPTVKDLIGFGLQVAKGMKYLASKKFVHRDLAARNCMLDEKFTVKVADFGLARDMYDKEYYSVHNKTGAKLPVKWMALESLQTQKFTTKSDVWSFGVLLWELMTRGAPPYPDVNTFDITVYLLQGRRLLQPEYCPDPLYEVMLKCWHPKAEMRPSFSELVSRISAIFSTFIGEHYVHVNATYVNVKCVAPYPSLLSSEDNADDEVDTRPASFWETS

For `COc1ccc(-c2cc(C(=O)Nc3ccc(Oc4ccnc5[nH]ccc45)c(F)c3)ncn2)cc1`, the half-maximal inhibitory concentration (IC50) in “cells” was determined as 2.57 µM; with A549 (Homo sapiens, A549, 72 h) it was 4.21 µM; in the experiment with MCF7 [1], 10.4 µM.
The corresponding values for `O=C(Nc1ccc(Oc2ccnc3[nH]ccc23)cc1)c1cc(-c2ccc(C(F)(F)F)cc2)ncn1` are 2.16 µM, 9.38 µM and 6.24 µM.
For `Cc1ccc(-c2cc(C(=O)Nc3ccc(Oc4ccnc5[nH]ccc45)cc3)ncn2)cc1` the same measures were 9.88 µM, 5.41 µM and 1.62 µM.
For `O=C(Nc1ccc(Oc2ccnc3[nH]ccc23)c(F)c1)c1nccc(-c2ccc(Cl)cc2)n1` the same measures were 14.6 µM, 8.94 µM and 9.66 µM.
For `O=C(Nc1ccc(Oc2ccnc3[nH]ccc23)cc1)c1cc(-c2ccccc2)ncn1`, the IC50 was determined as 0.24 µM in “cells”; 0.4 µM in the experiment on HeLa; 0.14 µM with A549 (Homo sapiens, A549, 72 h); 3.11 µM with HepG2; 0.02 µM in the experiment on MCF7 [1]; 0.12 µM in experiment [2].
As to `COc1ccc(-c2ccnc(C(=O)Nc3ccc(Oc4ccnc5[nH]ccc45)c(F)c3)n2)cc1`, the IC50 in “cells” came out at 14.1 µM; in the experiment on A549 (Homo sapiens, A549, 72 h), 5.43 µM; in the experiment with MCF7 [1], 8.96 µM.
Regarding `O=C(Nc1ccc(Oc2ccnc3[nH]ccc23)cc1)c1cc(-c2ccc(Br)cc2)ncn1`, the IC50 in “cells” is 2.61 µM; in the experiment with A549 (Homo sapiens, A549, 72 h), 9.87 µM; in the experiment on MCF7 [1], 3.84 µM.
The corresponding values for `O=C(Nc1ccc(Oc2ccnc3[nH]ccc23)cc1)c1cc(-c2ccc(Cl)cc2)ncn1` are 15.6 µM, 6.53 µM and 7.77 µM.
Turning to `O=C(Nc1ccc(Oc2ccnc3[nH]ccc23)cc1)c1nccc(-c2cccc(Cl)c2)n1`, the concentration for half-maximal inhibition (IC50) was determined as 7.8 µM in “cells”; 4.12 µM with A549 (Homo sapiens, A549, 72 h); 10.2 µM in the experiment with MCF7 [1].
As to `O=C(Nc1ccc(Oc2ccnc3[nH]ccc23)c(F)c1)c1cc(-c2ccccc2)ncn1`, the 50% inhibitory concentration (IC50) was found to be 0.04 µM in “cells”; 2.86 µM in the experiment on HeLa; 0.18 µM in the experiment with A549 (Homo sapiens, A549, 72 h); 9.61 µM in the experiment with HepG2; 4.64 µM in the experiment with MCF7 [1]; 0.98 µM in experiment [2].
Turning to `O=C(Nc1ccc(Oc2ccnc3[nH]ccc23)c(F)c1)c1cc(-c2ccc(F)cc2)ncn1`, the IC50 entry is “Not Active” in the experiment on MCF7 [3] and 14.2 µM in the experiment with A549 (Homo sapiens, A549, 72 h).
Turning to `O=C(Nc1ccc(Oc2ccnc3[nH]ccc23)c(F)c1)c1nccc(-c2ccc([N+](=O)[O-])cc2)n1`, the IC50 result in the experiment with MCF7 [3] was “Not Active”; in the experiment “cells” it was 12.1 µM; in the experiment on A549 (Homo sapiens, A549, 72 h), 4.47 µM.
On to `COc1ccc(-c2cc(C(=O)Nc3ccc(Oc4ccnc5[nH]ccc45)cc3)ncn2)cc1`, for which the IC50 in “cells” is 9.83 µM; with A549 (Homo sapiens, A549, 72 h), 4.41 µM; in the experiment on MCF7 [1] it was 4.45 µM.
For `O=C(Nc1ccc(Oc2ccnc3[nH]ccc23)c(F)c1)c1cc(-c2ccc(Cl)cc2)ncn1` the same measures were 3.2 µM, 3.36 µM and 26.9 µM.
For `O=C(Nc1ccc(Oc2ccnc3[nH]ccc23)c(F)c1)c1cc(-c2ccc(Br)cc2)ncn1` the same measures were 11.3 µM, 6.98 µM and 10.3 µM.
For the compound `O=C(Nc1ccc(Oc2ccnc3[nH]ccc23)c(F)c1)c1nccc(-c2cccc(Cl)c2)n1`, the IC50 in “cells” amounted to 1.38 µM; in the experiment with HeLa it was 3.35 µM; in the experiment with A549 (Homo sapiens, A549, 72 h) it was 0.45 µM; with HepG2 it was 9.34 µM; in the experiment on MCF7 [1] it was 1.58 µM; in experiment [2], 2.2 µM.
Regarding `O=C(Nc1ccc(Oc2ccnc3[nH]ccc23)c(F)c1)c1cc(-c2ccc(C(F)(F)F)cc2)ncn1`, the 50% inhibitory concentration (IC50) amounted to 4.12 µM in the experiment “cells”; 2.22 µM in the experiment with A549 (Homo sapiens, A549, 72 h); 2.84 µM in the experiment on MCF7 [1].
Turning to `O=C(Nc1ccc(Oc2ccnc3[nH]ccc23)cc1)c1nccc(-c2ccc(F)cc2)n1`, the 50% inhibitory concentration (IC50) result in the experiment on MCF7 [3] and in the experiment on A549 (a549) was “Not Active” in each case.
Regarding `Cc1ccc(-c2cc(C(=O)Nc3ccc(Oc4ccnc5[nH]ccc45)c(F)c3)ncn2)cc1`, the 50% inhibitory concentration (IC50) in “cells” turned out to be 24.9 µM; in the experiment on A549 (Homo sapiens, A549, 72 h), 8.6 µM; with MCF7 [1] it was 6.73 µM.
With `COc1ccc(-c2ccnc(C(=O)Nc3ccc(Oc4ccnc5[nH]ccc45)cc3)n2)cc1`, the 50% inhibitory concentration (IC50) in the experiment “cells” turned out to be 17.3 µM; with A549 (Homo sapiens, A549, 72 h), 13.3 µM; with MCF7 [1] it was 12.4 µM.
Regarding `Cc1ccc(-c2ccnc(C(=O)Nc3ccc(Oc4ccnc5[nH]ccc45)c(F)c3)n2)cc1`, the concentration for half-maximal inhibition (IC50) in “cells” stood at 0.52 µM; in the experiment with HeLa, 5.51 µM; in the experiment on A549 (Homo sapiens, A549, 72 h), 1.15 µM; in the experiment on HepG2, 16.4 µM; in the experiment with MCF7 [1] it was 7.17 µM; in experiment [2] it was 3.4 µM.
For `O=C(Nc1ccc(Oc2ccnc3[nH]ccc23)cc1)c1cc(-c2ccc(F)cc2)ncn1`, the IC50 in the experiment with A549 (Homo sapiens, A549, 72 h) came to 13 µM; in the experiment with MCF7 [1], 15.9 µM.
`Cc1ccc(-c2ccnc(C(=O)Nc3ccc(Oc4ccnc5[nH]ccc45)cc3)n2)cc1`: the half-inhibitory concentration (IC50) in the experiment “cells” came to 6.14 µM; in the experiment with A549 (Homo sapiens, A549, 72 h), 2.38 µM; in the experiment with MCF7 [1] it was 6.41 µM.
As to `O=C(Nc1ccc(Oc2ccnc3[nH]ccc23)cc1)c1nccc(-c2ccc(Cl)cc2)n1`, the IC50 result was “Not Active” in the experiment with MCF7 [3] and 22.4 µM in the experiment on A549 (Homo sapiens, A549, 72 h).
